Assay results taken from patent publication US6358885B1, “Substituted phenylheterocyclic herbicides” (Mississippi State University, priority 1992, dated 2002).

Legend:
cotton [1] = assay: Test C preemergence/postemergence greenhouse plant response rating 0 to 100; type: in vivo, Gossypium hirsutum; conditions: for Plant response rating, Cotton: 62 g/ha, 0 to 100 scale
In short: (§1)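 Compounds in non-phytotoxic solvent applied preemergence to sandy loam one day after planting, postemergence at the 1–4 leaf stage, or to ~2.5 cm floodwater over silt loam.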

giant foxtail [2] = assay: as above; type: in vivo, Setaria faberii; conditions: for Plant response rating, Giant foxtail: 62 g/ha, 0 to 100 scale
In short: as §1

pigweed = assay: as above; type: in vivo, Amaranthusretroflexus; conditions: for Plant response rating Pigweed: 62 g/ha, 0 to 100 scale
In short: as §1

lambsquarters = assay: as above; type: in vivo, Chenopodium album; conditions: POSTEMERGENCE
In short: as §1

chickweed = assay: as above; type: in vivo, Stellaria media; conditions: POSTEMERGENCE
In short: as §1

giant foxtail [3] = assay: Test B preemergence/postemergence greenhouse plant response rating 0 to 10; type: in vivo, Setaria faberii; conditions: 0 to 10 scale
In short: (§2)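 Test chemicals, dissolved in a non-phytotoxic solvent, were applied to soil at planting and, at the same time, over foliage of seedlings at the one to four leaf stage.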

crabgrass = assay: as above; type: in vivo, Digitaria spp.; conditions: 0 to 10 scale
In short: as §2

cotton [4] = assay: as above; type: in vivo, Gossypium hirsutum; conditions: 0 to 10 scale
In short: as §2

cocklebur = assay: as above; type: in vivo, Xanthium pensylvanicum; conditions: 0 to 10 scale
In short: as §2

barley = assay: Test C preemergence/postemergence greenhouse plant response rating 0 to 100; type: in vivo, Hordeum vulgare; conditions: for Plant response rating Barley Igri: 62 g/ha, 0 to 100 scale
In short: as §1

rape = assay: Test B preemergence/postemergence greenhouse plant response rating 0 to 10; type: in vivo, Brassica napus; conditions: 0 to 10 scale
In short: as §2

duck salad = assay: Test C flood test plant response rating 0 to 100; type: in vivo, Heteranthera limosa
In short: as §1

velvetleaf = assay: Test C preemergence/postemergence greenhouse plant response rating 0 to 100; type: in vivo, Abutilon theophrasti
In short: as §1

cheatgrass = assay: Test B preemergence/postemergence greenhouse plant response rating 0 to 10; type: in vivo, Bromus secalinus; conditions: 0 to 10 scale
In short: as §2

morningglory = assay: as above; type: in vivo, Ipomoea hederacea; conditions: 0 to 10 scale
In short: as §2

soybean = assay: Test C preemergence/postemergence greenhouse plant response rating 0 to 100; type: in vivo, Glycine max
In short: as §1

bedstraw = assay: Test B preemergence/postemergence greenhouse plant response rating 0 to 10; type: in vivo, Galium aparine; conditions: 0 to 10 scale
In short: as §2

umbrella sedge = assay: Test C flood test plant response rating 0 to 100; type: in vivo, Cyperus difformis
In short: as §1

[5] = POSTEMERGENCE section, flood test, Rate 1 g/ha
[6] = POSTEMERGENCE section, flood test, Rate 4 g/ha
[7] = Rate 16 g/ha, under POSTEMERGENCE head (flood test species)
[8] = flood test species listed under POSTEMERGENCE, 62 g/ha, 0 to 100 scale
[9] = POSTEMERGENCE, 62 g/ha, 0 to 100 scale

SMILES: CC(C)Oc1cc(-c2nn3c(c2Br)CCCC3)c(F)cc1Cl [Compound 38]
- Plant response rating, Cotton (cotton [1]; POSTEMERGENCE): 100
- Plant response rating (0 to 100), Cotton (cotton [1]; POSTEMERGENCE, Rate 1 g/ha): 60
- Plant response rating (0 to 100), Cotton (cotton [1]; POSTEMERGENCE, Rate 4 g/ha): 80
- Plant response rating, Cotton (cotton [1]; PREEMERGENCE): 0
- Plant response rating (0 to 100), Cotton (cotton [1]; PREEMERGENCE, Rate 1 g/ha): 0
- Plant response rating (0 to 100), Cotton (cotton [1]; PREEMERGENCE, Rate 4 g/ha): 0
- Plant response rating (0 to 100), Cotton (cotton [1]; Rate 16 g/ha, POSTEMERGENCE): 90
- Plant response rating (0 to 100), Cotton (cotton [1]; Rate 16 g/ha, PREEMERGENCE): 0
- Plant response rating, Giant foxtail (giant foxtail [2]; POSTEMERGENCE): 50
- Plant response rating (0 to 100), Giant foxtail (giant foxtail [2]; POSTEMERGENCE, Rate 1 g/ha): 20
- Plant response rating (0 to 100), Giant foxtail (giant foxtail [2]; POSTEMERGENCE, Rate 4 g/ha): 30
- Plant response rating, Giant foxtail (giant foxtail [2]; PREEMERGENCE): 0
- Plant response rating (0 to 100), Giant foxtail (giant foxtail [2]; PREEMERGENCE, Rate 1 g/ha): 0
- Plant response rating (0 to 100), Giant foxtail (giant foxtail [2]; PREEMERGENCE, Rate 4 g/ha): 0
- Plant response rating (0 to 100), Giant foxtail (giant foxtail [2]; Rate 16 g/ha, POSTEMERGENCE): 40
- Plant response rating (0 to 100), Giant foxtail (giant foxtail [2]; Rate 16 g/ha, PREEMERGENCE): 0
- Plant response rating Pigweed (pigweed; POSTEMERGENCE): 100
- Plant response rating (0 to 100), Pigweed (pigweed; POSTEMERGENCE, Rate 1 g/ha): 10
- Plant response rating (0 to 100), Pigweed (pigweed; POSTEMERGENCE, Rate 4 g/ha): 30
- Plant response rating Pigweed (pigweed; PREEMERGENCE): 100
- Plant response rating (0 to 100), Pigweed (pigweed; PREEMERGENCE, Rate 1 g/ha): 0
- Plant response rating (0 to 100), Pigweed (pigweed; PREEMERGENCE, Rate 4 g/ha): 0
- Plant response rating (0 to 100), Pigweed (pigweed; Rate 16 g/ha, POSTEMERGENCE): 100
- Plant response rating (0 to 100), Pigweed (pigweed; Rate 16 g/ha, PREEMERGENCE): 90
- Plant response rating Lambsquarters (lambsquarters; 62 g/ha, 0 to 100 scale): 70
- Plant response rating (0 to 100), Lambsquarters (lambsquarters; Rate 1 g/ha): 60
- Plant response rating (0 to 100), Lambsquarters (lambsquarters; Rate 4 g/ha): 60
- Plant response rating (0 to 100), Lambsquarters (lambsquarters; Rate 16 g/ha): 70
- Plant response rating, Chickweed (chickweed; 62 g/ha, 0 to 100 scale): 30
- Plant response rating (0 to 100), Chickweed (chickweed; Rate 1 g/ha): 0
- Plant response rating (0 to 100), Chickweed (chickweed; Rate 4 g/ha): 10
- Plant response rating (0 to 100), Chickweed (chickweed; Rate 16 g/ha): 20
- Plant response rating, Giant foxtail (giant foxtail [3]; POSTEMERGENCE, Rate 50 g/ha): 5
- Plant response rating, Giant foxtail (giant foxtail [3]; PREEMERGENCE, Rate 50 g/ha): 2
- Plant response rating, Giant foxtail (giant foxtail [3]; Rate 200 g/ha, POSTEMERGENCE): 7
- Plant response rating, Giant foxtail (giant foxtail [3]; Rate 200 g/ha, PREEMERGENCE): 9
- Plant response rating, Crabgrass (crabgrass; POSTEMERGENCE, Rate 50 g/ha): 5
- Plant response rating, Crabgrass (crabgrass; POSTEMERGENCE, Rate 200 g/ha): 6
- Plant response rating, Crabgrass (crabgrass; PREEMERGENCE, Rate 50 g/ha): 0
- Plant response rating, Crabgrass (crabgrass; Rate 200 g/ha, PREEMERGENCE): 8
- Plant response rating, Cotton (cotton [4]; POSTEMERGENCE, Rate 50 g/ha): 9
- Plant response rating, Cotton (cotton [4]; POSTEMERGENCE, Rate 200 g/ha): 10
- Plant response rating, Cotton (cotton [4]; PREEMERGENCE, Rate 50 g/ha): 0
- Plant response rating, Cotton (cotton [4]; Rate 200 g/ha, PREEMERGENCE): 9
- Plant response rating, Cocklebur (cocklebur; POSTEMERGENCE, Rate 50 g/ha): 8
- Plant response rating, Cocklebur (cocklebur; POSTEMERGENCE, Rate 200 g/ha): 10
- Plant response rating, Cocklebur (cocklebur; PREEMERGENCE, Rate 50 g/ha): 0
- Plant response rating, Cocklebur (cocklebur; Rate 200 g/ha, PREEMERGENCE): 5
- Plant response rating Barley Igri (barley; POSTEMERGENCE): 50
- Plant response rating (0 to 100), Barley Igri (barley; POSTEMERGENCE, Rate 1 g/ha): 10
- Plant response rating Barley Igri (barley; PREEMERGENCE): 0
- Plant response rating (0 to 100), Barley Igri (barley; PREEMERGENCE, Rate 1 g/ha): 0
- Plant response rating (0 to 100), Barley Igri (barley; PREEMERGENCE, Rate 4 g/ha): 0
- Plant response rating (0 to 100), Barley Igri (barley; Rate 4 g/ha, POSTEMERGENCE): 30
- Plant response rating (0 to 100), Barley Igri (barley; Rate 16 g/ha, POSTEMERGENCE): 40
- Plant response rating (0 to 100), Barley Igri (barley; Rate 16 g/ha, PREEMERGENCE): 0
- Plant response rating, Rape (rape; POSTEMERGENCE, Rate 50 g/ha): 8
- Plant response rating, Rape (rape; PREEMERGENCE, Rate 50 g/ha): 8
- Plant response rating, Rape (rape; Rate 200 g/ha, POSTEMERGENCE): 10
- Plant response rating, Rape (rape; Rate 200 g/ha, PREEMERGENCE): 8
- Plant response rating (0 to 100), Duck salad (duck salad; [5]): 0
- Plant response rating (0 to 100), Duck salad (duck salad; [6]): 0
- Plant response rating (0 to 100), Duck salad (duck salad; [7]): 20
- Plant response rating Duck salad (duck salad; [8]): 50
- Plant response rating, Velvetleaf (velvetleaf; [9]): 90
- Plant response rating (0 to 100), Velvetleaf (velvetleaf; POSTEMERGENCE, Rate 1 g/ha): 10
- Plant response rating (0 to 100), Velvetleaf (velvetleaf; POSTEMERGENCE, Rate 4 g/ha): 10
- Plant response rating (0 to 100), Velvetleaf (velvetleaf; PREEMERGENCE, Rate 1 g/ha): 0
- Plant response rating (0 to 100), Velvetleaf (velvetleaf; PREEMERGENCE, Rate 4 g/ha): 20
- Plant response rating (0 to 100), Velvetleaf (velvetleaf; Rate 16 g/ha, POSTEMERGENCE): 80
- Plant response rating (0 to 100), Velvetleaf (velvetleaf; Rate 16 g/ha, PREEMERGENCE): 100
- Plant response rating, Cheatgrass (cheatgrass; POSTEMERGENCE, Rate 50 g/ha): 4
- Plant response rating, Cheatgrass (cheatgrass; POSTEMERGENCE, Rate 200 g/ha): 5
- Plant response rating, Cheatgrass (cheatgrass; PREEMERGENCE, Rate 50 g/ha): 0
- Plant response rating, Cheatgrass (cheatgrass; Rate 200 g/ha, PREEMERGENCE): 3
- Plant response rating, Morningglory (morningglory; POSTEMERGENCE, Rate 50 g/ha): 8
- Plant response rating, Morningglory (morningglory; PREEMERGENCE, Rate 50 g/ha): 0
- Plant response rating, Morningglory (morningglory; Rate 200 g/ha, POSTEMERGENCE): 9
- Plant response rating, Morningglory (morningglory; Rate 200 g/ha, PREEMERGENCE): 4
- Plant response rating, Soybean (soybean; [9]): 60
- Plant response rating (0 to 100), Soybean (soybean; POSTEMERGENCE, Rate 1 g/ha): 20
- Plant response rating (0 to 100), Soybean (soybean; POSTEMERGENCE, Rate 4 g/ha): 20
- Plant response rating (0 to 100), Soybean (soybean; PREEMERGENCE, Rate 1 g/ha): 0
- Plant response rating (0 to 100), Soybean (soybean; PREEMERGENCE, Rate 4 g/ha): 0
- Plant response rating (0 to 100), Soybean (soybean; Rate 16 g/ha, POSTEMERGENCE): 40
- Plant response rating (0 to 100), Soybean (soybean; Rate 16 g/ha, PREEMERGENCE): 0
- Plant response rating, Bedstraw (bedstraw; POSTEMERGENCE, Rate 200 g/ha): 10
- Plant response rating, Bedstraw (bedstraw; PREEMERGENCE, Rate 50 g/ha): 0
- Plant response rating, Bedstraw (bedstraw; Rate 200 g/ha, PREEMERGENCE): 7
- Plant response rating (0 to 100), Umbrella sedge (umbrella sedge; [5]): 0
- Plant response rating (0 to 100), Umbrella sedge (umbrella sedge; [6]): 0
- Plant response rating (0 to 100), Umbrella sedge (umbrella sedge; [7]): 20
- Plant response rating Umbrella sedge (umbrella sedge; [8]): 50
